The text below walks through data of US7307063B2, “Melanocortin metallopeptides for treatment of sexual dysfunction” (Palatin Technologies, Inc., priority 2001, dated 2007).

The target in one test is T1, MC1-R (Mus musculus, UniProt Q01727).
T1 construct: MC1-R membranes were isolated from B16—F10 mouse melanoma cells; endogenous in cells; host or cells: B16-F10 mouse melanoma cells
The test can be described thus: Competitive binding assay: inhibition of 125I-NDP-α-MSH binding to membranes from B16-F10 mouse melanoma cells. The following applies: Table 6, mean of triplicate. The method, then:
(§1) Rhenium-complexed metallopeptides of the formulas given in Table 1 were prepared, with the metallopeptides complexed with rhenium using the rhenium transfer agent ReOCl3(PPh3)2 in the presence of 1,8-Diazabicyclo[5,4,0] undec-7-ene as a base, as disclosed in International Application PCT/US00/16396, filed Jun. 14, 2000, Melanocortin Metallopeptide Constructs, Combinatorial Libraries and Applications, incorporated by reference herein. Affinities of compounds were measured using membranes from HEK-293 cells containing cloned human melanocortin receptor subtypes 3, 4 and 5. MC1-R membranes were isolated from B16—F10 mouse melanoma cells. The assay tube also contained a chosen concentration of the test peptide of this invention, complexed to a rhenium metal ion as indicated, for determining its efficacy in inhibiting the binding of ^125I-NDP-α-MSH to its receptor. Non-specific binding was measured by complete inhibition of binding of ^125I-NDP-α-MSH in the assay with the presence of 1 μM α-MSH. 100% specific binding was defined as the difference in radioactivity (cpm) bound to cell membranes in the absence and presence of 1 μM α-MSH. The cpm obtained in presence of test compounds were normalized with respect to 100% specific binding to determine the percent inhibition of ^125I-NDP-α-MSH binding.
(§2) Peptide sequences set forth in Table 6 were prepared using conventional synthetic means. The resulting sequences were rhenium-complexed to form metallopeptides, with the metallopeptides complexed with rhenium using the rhenium transfer agent ReOCl3(PPh3)2 in the presence of 1,8-Diazabicyclo[5,4,0] undec-7-ene as a base. Percent inhibition was determined as in Example 1 using the Re-complexed metallopeptides, using the same methods as described therein. All measures are means of triplicate determinations.

For the next test, the target named is T2, MC4-R (Homo sapiens, UniProt P32245).
T2 construct: expressed in transfected cells; host or cells: HEK-293
Kind of test: Competitive binding assay: inhibition of 125I-NDP-α-MSH binding to HEK-293 membranes with cloned human receptor subtype 4. The following applies: Table 6, mean of triplicate. The method, then:
as §1, §2

Non-standard residues stand in square brackets, D forms with d. No end group written: not given here. *: point of attachment. Heptanoyl = CCCCCCC(=O)*

T2 sequence (P32245 whole entry): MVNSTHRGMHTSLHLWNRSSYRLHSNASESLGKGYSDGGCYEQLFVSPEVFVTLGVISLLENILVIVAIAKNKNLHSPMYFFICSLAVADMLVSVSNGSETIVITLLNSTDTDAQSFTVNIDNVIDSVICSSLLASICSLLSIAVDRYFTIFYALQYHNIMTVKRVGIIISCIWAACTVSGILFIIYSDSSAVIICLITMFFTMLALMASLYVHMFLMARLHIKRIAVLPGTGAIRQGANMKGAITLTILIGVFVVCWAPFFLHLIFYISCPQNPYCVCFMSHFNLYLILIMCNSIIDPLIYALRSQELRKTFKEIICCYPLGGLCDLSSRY
T1 sequence (Q01727 whole entry): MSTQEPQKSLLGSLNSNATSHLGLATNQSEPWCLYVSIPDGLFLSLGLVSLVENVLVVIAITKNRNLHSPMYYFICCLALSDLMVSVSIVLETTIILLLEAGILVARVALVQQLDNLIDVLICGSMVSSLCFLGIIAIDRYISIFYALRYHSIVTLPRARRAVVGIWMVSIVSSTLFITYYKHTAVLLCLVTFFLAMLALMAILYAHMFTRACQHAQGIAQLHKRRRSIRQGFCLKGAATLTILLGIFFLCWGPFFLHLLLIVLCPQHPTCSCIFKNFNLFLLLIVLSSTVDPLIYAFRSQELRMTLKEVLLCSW

Consider “Heptanoyl-Ser(Bzl)-D-Phe(4′-Cl)-Arg-Thr(Bzl)-Cys-NH2”, for which the “% Inhibition of Binding MC1-R” value on MC1-R (1 μM) is on record as 4%. Besides, the “% Inhibition of Binding hMC4-R” value at MC4-R (1 μM) was 92%.

Take “Heptanoyl-Ser(Bzl)-D-Phe(4′-Cl)-Arg-Tyr(2′,6′-diCl-Bzl)-Cys-NH2”: the “% Inhibition of Binding MC1-R” value at MC1-R (1 μM) was found to be 19%. For the same substance, on MC4-R (1 μM), the “% Inhibition of Binding hMC4-R” value amounted to 0%.

Consider “Heptanoyl-Ser(Bzl)-D-Phe(4′-Cl)-Arg-Tyr(3′,5′-Di-l)-Cys-NH2”, for which the “% Inhibition of Binding MC1-R” value at MC1-R (0.1 μM) was 10%. In addition, on MC4-R (0.1 μM), the “% Inhibition of Binding hMC4-R” value is listed as 85%.

In the case of “Heptanoyl-Ser(Bzl)-D-Phe(4′-Cl)-Arg-Tyr(3′-l)-Cys-NH2”, on MC1-R (0.1 μM), the “% Inhibition of Binding MC1-R” value was found to be 12%. Besides, at MC4-R (0.1 μM), the “% Inhibition of Binding hMC4-R” value is recorded as 92%.

Turning to “Heptanoyl-Ser(Bzl)-D-Phe(4′-Cl)-Arg-Tyr(Bzl)-Cys-NH2”, the “% Inhibition of Binding MC1-R” value on MC1-R (1 μM) is 16%. In addition, the “% Inhibition of Binding hMC4-R” value on MC4-R (1 μM) came to 85%.

Take “Heptanoyl-Ser(Bzl)-D-Phe(4′-Cl)-Arg-Tyr-Cys-NH2”: the “% Inhibition of Binding MC1-R” value on MC1-R (0.1 μM) turned out to be 6%. Moreover, the “% Inhibition of Binding hMC4-R” value on MC4-R (0.1 μM) was found to be 13%.

Regarding “Heptanoyl-Ser(Bzl)-D-Phe(4′-Cl)-Gly-Nal 2′-Cys-Lys-NH2”, the “% Inhibition of Binding MC1-R” value on MC1-R (1 μM) was determined as 46%. The “% Inhibition of Binding hMC4-R” value at MC4-R (1 μM) is listed as 5%.

Regarding Heptanoyl-[dP][dF]RWCK-NH2, the “% Inhibition of Binding MC1-R” value at MC1-R (1 μM) is given as 88%. Also, the “% Inhibition of Binding hMC4-R” value at MC4-R (1 μM) amounted to 71%.

HyP(Bzl)-D-Phe(2′-Cl)-Nal 2′-Cys-NH2: the “% Inhibition of Binding MC1-R” value at MC1-R (1 μM) turned out to be 57%. Also, the “% Inhibition of Binding hMC4-R” value on MC4-R (1 μM) turned out to be 85%.

On to “NH2-(CH2)6-CO-Ser(Bzl)-D-Phe(4′-Cl)-Arg-D-Trp-Cys-NH2”, for which, at MC1-R (1 μM), the “% Inhibition of Binding MC1-R” value was found to be 48%. In addition, on MC4-R (1 μM), the “% Inhibition of Binding hMC4-R” value was 97%.

With “Ph(CH2)2-CO-D-Phe(2′-Cl)-Lys-Nal 2′-Cys-NH2”, the “% Inhibition of Binding MC1-R” value on MC1-R (1 μM) amounted to 0%. Also, the “% Inhibition of Binding hMC4-R” value at MC4-R (1 μM) worked out at 26%.

For “Ph(CH2)3-CO-D-Phe(2′-Cl)-Lys-Nal 2′-Cys-NH2”, the “% Inhibition of Binding MC1-R” value at MC1-R (1 μM) amounted to 17%. Moreover, the “% Inhibition of Binding hMC4-R” value at MC4-R (1 μM) is 33%.

With “Ph(CH2)-CO-D-Phe(2′-Cl)-Lys-Nal 2′-Cys-NH2”, at MC1-R (1 μM), the “% Inhibition of Binding MC1-R” value is listed as 11%. At MC4-R (1 μM), the “% Inhibition of Binding hMC4-R” value was determined as 22%.

PhCO-D-Phe(2′-Cl)-Lys-Nal 2′-Cys-NH2: the “% Inhibition of Binding MC1-R” value on MC1-R (1 μM) worked out at 60%. The “% Inhibition of Binding hMC4-R” value at MC4-R (1 μM) was 41%.

Take “Phe-Arg-Trp-Cys-Lys-NH2 (FRWCK-NH2; not fully specified; printed as Phe-Arg-Trp-Cys-Lys-NH2)”: in the test with MC1-R (1 μM), the “% Inhibition of Binding MC1-R” value amounted to 53%. In addition, the “% Inhibition of Binding hMC4-R” value with MC4-R (1 μM) was determined as 64%.

Consider “Phe-Arg-Trp-Cys-Trp-NH2 (FRWCW-NH2; not fully specified; printed as Phe-Arg-Trp-Cys-Trp-NH2)”, for which, in the test with MC1-R (1 μM), the “% Inhibition of Binding MC1-R” value came to 32%. The “% Inhibition of Binding hMC4-R” value in the test with MC4-R (1 μM) is recorded as 24%.

As for “Ser(Bzl)-D-Phe(2′-Cl)-Lys-Nal 2′-Cys-NH2”, the “% Inhibition of Binding MC1-R” value on MC1-R (1 μM) is given as 33%. Also, the “% Inhibition of Binding hMC4-R” value at MC4-R (1 μM) came to 50%.

Take Ser(Bzl)-D-Phe(4′-Cl)-Arg-D-Trp-Cys-NH2: at MC1-R (1 μM), the “% Inhibition of Binding MC1-R” value is listed as 65%. For the same substance, the “% Inhibition of Binding hMC4-R” value at MC4-R (1 μM) amounted to 82%.

Take “Ser(Bzl)-D-Phe(4′-Cl)-Arg-Nal 2′-Cys-Lys-NH2”: the “% Inhibition of Binding MC1-R” value on MC1-R (0.1 μM) was found to be 33%. Besides, the “% Inhibition of Binding hMC4-R” value at MC4-R (0.1 μM) was 95%.

On to “Ser(Bzl)-D-Phe(4′-Cl)-Arg-Nal 2′-Cys-NH2”, for which the “% Inhibition of Binding MC1-R” value at MC1-R (1 μM) amounted to 35%. In addition, the “% Inhibition of Binding hMC4-R” value on MC4-R (1 μM) is 99%.

On to [dF]RW[dC]K-NH2, for which, on MC1-R (1 μM), the “% Inhibition of Binding MC1-R” value is on record as 23%. Also, the “% Inhibition of Binding hMC4-R” value on MC4-R (1 μM) stood at 42%.

Take [dF]RW[dC]W-NH2: on MC1-R (1 μM), the “% Inhibition of Binding MC1-R” value was 53%. On MC4-R (1 μM), the “% Inhibition of Binding hMC4-R” value is 45%.

In the case of [dF]R[dW]CK-NH2, at MC1-R (1 μM), the “% Inhibition of Binding MC1-R” value was determined as 66%. Besides, on MC4-R (1 μM), the “% Inhibition of Binding hMC4-R” value turned out to be 55%.

In the case of [dF]R[dW]CW-NH2, the “% Inhibition of Binding MC1-R” value on MC1-R (1 μM) came to 37%. Moreover, the “% Inhibition of Binding hMC4-R” value on MC4-R (1 μM) came to 32%.
